Data published in ChEMBL document CHEMBL4507273 (2021).

Columns and labels:
[1] = molecular target: Alpha-2A adrenergic receptor (Homo sapiens, UniProt P08913); assay: GPCRScan assay: inhibition of Alpha2A; design: radioligand conc. used [nm] 1.0 – 3.0, parental cells stable MDCK
[2] = molecular target: T1, Alpha-2C adrenergic receptor (Homo sapiens, UniProt P18825); assay: GPCRScan assay: inhibition of Alpha2C; design: radioligand conc. used [nm] 0.5 – 1.0, parental cells stable MDCK
T1 sequence (P18825 whole entry): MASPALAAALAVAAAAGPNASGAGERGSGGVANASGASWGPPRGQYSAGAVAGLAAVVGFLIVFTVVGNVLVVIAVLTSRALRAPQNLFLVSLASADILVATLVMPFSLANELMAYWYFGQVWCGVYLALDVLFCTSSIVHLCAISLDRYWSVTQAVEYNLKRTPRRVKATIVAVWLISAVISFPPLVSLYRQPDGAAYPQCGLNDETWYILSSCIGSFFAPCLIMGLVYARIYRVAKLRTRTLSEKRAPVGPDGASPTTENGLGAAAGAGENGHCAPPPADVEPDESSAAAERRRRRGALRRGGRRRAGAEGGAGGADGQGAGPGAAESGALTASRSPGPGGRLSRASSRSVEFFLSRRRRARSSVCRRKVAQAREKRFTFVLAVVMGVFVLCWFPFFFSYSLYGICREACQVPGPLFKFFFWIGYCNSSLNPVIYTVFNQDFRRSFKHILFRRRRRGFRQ

[3] = tested on: Tyrosine-protein kinase ABL1 (Homo sapiens), P00519 [Q252H]; conditions: Compound concentration 1000.0 nM
[4] = tested on: Tyrosine-protein kinase ABL1 (Homo sapiens), P00519 [Y253F]; conditions: Compound concentration 1000.0 nM
[5] = molecular target: Activin receptor type-2A (Homo sapiens) (UniProt P27037); conditions: Compound concentration 1000.0 nM
[6] = molecular target: RAC-beta serine/threonine-protein kinase (Homo sapiens) (UniProt P31751); conditions: Compound concentration 1000.0 nM
[7] = molecular target: Mitogen-activated protein kinase kinase kinase 5 (Homo sapiens) (UniProt Q99683); conditions: Compound concentration 1000.0 nM
[8] = molecular target: Serine/threonine-protein kinase BRSK1 (Homo sapiens) (UniProt Q8TDC3); conditions: Compound concentration 1000.0 nM
[9] = molecular target: Calcium/calmodulin-dependent protein kinase type 1 (Homo sapiens) (UniProt Q14012); conditions: Compound concentration 1000.0 nM
[10] = molecular target: Peripheral plasma membrane protein CASK (Homo sapiens) (UniProt O14936); conditions: Compound concentration 1000.0 nM
[11] = molecular target: Cyclin-dependent kinase 4 (Homo sapiens) (UniProt P11802); conditions: Compound concentration 1000.0 nM
[12] = molecular target: Cyclin-dependent kinase 7 (Homo sapiens) (UniProt P50613); conditions: Compound concentration 1000.0 nM
[13] = molecular target: Dual specificity protein kinase CLK3 (Homo sapiens) (UniProt P49761); conditions: Compound concentration 1000.0 nM
[14] = molecular target: Ephrin type-A receptor 6 (Homo sapiens) (UniProt Q9UF33); conditions: Compound concentration 1000.0 nM
[15] = molecular target: Mitogen-activated protein kinase 7 (Homo sapiens) (UniProt Q13164); conditions: Compound concentration 1000.0 nM
[16] = tested on: Fibroblast growth factor receptor 3 (Homo sapiens), P22607 [G697C]; conditions: Compound concentration 1000.0 nM
[17] = molecular target: Glycogen synthase kinase-3 beta (Homo sapiens) (UniProt P49841); conditions: Compound concentration 1000.0 nM
[18] = molecular target: Serine/threonine-protein kinase haspin (Homo sapiens) (UniProt Q8TF76); conditions: Compound concentration 1000.0 nM
[19] = molecular target: Mitogen-activated protein kinase 9 (Homo sapiens) (UniProt P45984); conditions: Compound concentration 1000.0 nM
[20] = molecular target: Mitogen-activated protein kinase kinase kinase 13 (Homo sapiens) (UniProt O43283); conditions: Compound concentration 1000.0 nM
[21] = molecular target: MAP kinase-activated protein kinase 5 (Homo sapiens) (UniProt Q8IW41); conditions: Compound concentration 1000.0 nM
[22] = molecular target: Serine/threonine-protein kinase MARK1 (Homo sapiens) (UniProt Q9P0L2); conditions: Compound concentration 1000.0 nM
[23] = molecular target: Serine/threonine-protein kinase MARK2 (Homo sapiens) (UniProt Q7KZI7); conditions: Compound concentration 1000.0 nM
[24] = molecular target: Hepatocyte growth factor receptor (Homo sapiens) (UniProt P08581); conditions: Compound concentration 1000.0 nM
[25] = molecular target: Mitogen-activated protein kinase kinase kinase 14 (Homo sapiens) (UniProt Q99558); conditions: Compound concentration 1000.0 nM
[26] = molecular target: Mitogen-activated protein kinase 11 (Homo sapiens) (UniProt Q15759); conditions: Compound concentration 1000.0 nM
[27] = molecular target: Cyclin-dependent kinase 17 (Homo sapiens) (UniProt Q00537); conditions: Compound concentration 1000.0 nM
[28] = tested on: Phosphatidylinositol 4,5-bisphosphate 3-kinase catalytic subunit alpha isoform (Homo sapiens), P42336 [M1043I]; conditions: Compound concentration 1000.0 nM
[29] = molecular target: Serine/threonine-protein kinase N1 (Homo sapiens) (UniProt Q16512); conditions: Compound concentration 1000.0 nM
[30] = molecular target: Serine/threonine-protein kinase PLK2 (Homo sapiens) (UniProt Q9NYY3); conditions: Compound concentration 1000.0 nM
[31] = molecular target: Serine/threonine-protein kinase D3 (Homo sapiens) (UniProt O94806); conditions: Compound concentration 1000.0 nM
[32] = molecular target: Serine/threonine-protein kinase RIO2 (Homo sapiens) (UniProt Q9BVS4); conditions: Compound concentration 1000.0 nM
[33] = molecular target: SRSF protein kinase 2 (Homo sapiens) (UniProt P78362); conditions: Compound concentration 1000.0 nM
[34] = molecular target: TGF-beta receptor type-2 (Homo sapiens) (UniProt P37173); conditions: Compound concentration 1000.0 nM
[35] = molecular target: Vascular endothelial growth factor receptor 2 (Homo sapiens) (UniProt P35968); conditions: Compound concentration 1000.0 nM
[36] = molecular target: Mitogen-activated protein kinase kinase kinase 20 (Homo sapiens) (UniProt Q9NYL2); conditions: Compound concentration 1000.0 nM
[37] = molecular target: D(4) dopamine receptor (Homo sapiens) (UniProt P21917); conditions: Compound concentration 10.0 uM
[38] = molecular target: Kappa-type opioid receptor (Homo sapiens, UniProt P41145); conditions: Compound concentration 10.0 uM
[39] = molecular target: T2, Alpha-2C adrenergic receptor (Homo sapiens) (UniProt P18825); conditions: Compound concentration 10.0 uM
T2 sequence (whole entry): T1 sequence (P18825 whole entry)

Hepatocyte growth factor receptor (Homo sapiens), sequence (P08581 whole entry): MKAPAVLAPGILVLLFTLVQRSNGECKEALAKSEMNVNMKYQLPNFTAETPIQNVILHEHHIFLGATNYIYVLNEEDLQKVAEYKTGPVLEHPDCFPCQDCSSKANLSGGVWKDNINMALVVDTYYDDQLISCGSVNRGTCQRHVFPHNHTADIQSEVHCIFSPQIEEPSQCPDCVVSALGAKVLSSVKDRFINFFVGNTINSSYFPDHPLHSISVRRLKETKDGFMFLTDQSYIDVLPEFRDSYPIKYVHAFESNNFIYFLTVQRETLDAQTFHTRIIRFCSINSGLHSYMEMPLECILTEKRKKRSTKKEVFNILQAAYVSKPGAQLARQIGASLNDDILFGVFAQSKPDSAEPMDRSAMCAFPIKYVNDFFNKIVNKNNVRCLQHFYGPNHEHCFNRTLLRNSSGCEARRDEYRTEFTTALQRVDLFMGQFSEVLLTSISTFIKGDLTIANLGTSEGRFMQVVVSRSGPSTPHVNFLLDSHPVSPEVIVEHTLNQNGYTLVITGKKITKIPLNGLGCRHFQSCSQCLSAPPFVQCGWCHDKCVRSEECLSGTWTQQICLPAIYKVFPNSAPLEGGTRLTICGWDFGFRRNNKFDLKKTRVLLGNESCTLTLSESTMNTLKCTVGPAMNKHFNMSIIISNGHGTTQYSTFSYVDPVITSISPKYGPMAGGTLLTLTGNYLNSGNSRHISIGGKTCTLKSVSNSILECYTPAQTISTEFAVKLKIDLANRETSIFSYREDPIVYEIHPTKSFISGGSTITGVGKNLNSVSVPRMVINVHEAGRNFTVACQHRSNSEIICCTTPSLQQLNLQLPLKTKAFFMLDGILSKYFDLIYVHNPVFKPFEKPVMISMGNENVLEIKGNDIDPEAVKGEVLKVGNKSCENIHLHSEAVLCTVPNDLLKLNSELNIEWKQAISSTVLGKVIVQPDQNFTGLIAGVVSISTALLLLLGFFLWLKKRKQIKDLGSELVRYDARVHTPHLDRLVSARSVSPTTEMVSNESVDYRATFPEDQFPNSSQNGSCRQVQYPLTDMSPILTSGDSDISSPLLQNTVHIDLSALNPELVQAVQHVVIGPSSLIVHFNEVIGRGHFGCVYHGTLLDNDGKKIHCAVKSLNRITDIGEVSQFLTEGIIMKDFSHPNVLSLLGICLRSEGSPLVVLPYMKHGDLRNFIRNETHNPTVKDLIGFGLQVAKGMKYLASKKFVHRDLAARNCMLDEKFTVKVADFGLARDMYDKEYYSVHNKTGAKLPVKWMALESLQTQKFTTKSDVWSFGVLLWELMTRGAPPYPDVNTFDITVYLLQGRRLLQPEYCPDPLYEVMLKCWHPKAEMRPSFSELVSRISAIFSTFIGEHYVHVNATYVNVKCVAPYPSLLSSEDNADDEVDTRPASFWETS
Serine/threonine-protein kinase RIO2 (Homo sapiens), sequence (Q9BVS4 whole entry, looked up): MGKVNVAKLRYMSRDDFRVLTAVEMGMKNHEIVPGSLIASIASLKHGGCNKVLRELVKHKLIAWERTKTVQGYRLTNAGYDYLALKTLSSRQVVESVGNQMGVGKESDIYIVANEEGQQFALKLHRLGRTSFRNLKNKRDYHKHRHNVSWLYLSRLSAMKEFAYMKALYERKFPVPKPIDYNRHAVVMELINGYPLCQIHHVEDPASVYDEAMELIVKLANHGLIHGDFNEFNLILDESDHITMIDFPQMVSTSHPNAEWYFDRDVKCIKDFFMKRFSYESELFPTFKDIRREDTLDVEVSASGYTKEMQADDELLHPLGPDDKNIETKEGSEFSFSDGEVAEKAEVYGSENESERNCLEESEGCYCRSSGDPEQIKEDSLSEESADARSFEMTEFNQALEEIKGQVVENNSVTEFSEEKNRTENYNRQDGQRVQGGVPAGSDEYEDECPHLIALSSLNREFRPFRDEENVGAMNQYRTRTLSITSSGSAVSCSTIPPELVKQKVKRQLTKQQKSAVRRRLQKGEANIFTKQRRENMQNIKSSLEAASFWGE
Serine/threonine-protein kinase BRSK1 (Homo sapiens), sequence (Q8TDC3 whole entry): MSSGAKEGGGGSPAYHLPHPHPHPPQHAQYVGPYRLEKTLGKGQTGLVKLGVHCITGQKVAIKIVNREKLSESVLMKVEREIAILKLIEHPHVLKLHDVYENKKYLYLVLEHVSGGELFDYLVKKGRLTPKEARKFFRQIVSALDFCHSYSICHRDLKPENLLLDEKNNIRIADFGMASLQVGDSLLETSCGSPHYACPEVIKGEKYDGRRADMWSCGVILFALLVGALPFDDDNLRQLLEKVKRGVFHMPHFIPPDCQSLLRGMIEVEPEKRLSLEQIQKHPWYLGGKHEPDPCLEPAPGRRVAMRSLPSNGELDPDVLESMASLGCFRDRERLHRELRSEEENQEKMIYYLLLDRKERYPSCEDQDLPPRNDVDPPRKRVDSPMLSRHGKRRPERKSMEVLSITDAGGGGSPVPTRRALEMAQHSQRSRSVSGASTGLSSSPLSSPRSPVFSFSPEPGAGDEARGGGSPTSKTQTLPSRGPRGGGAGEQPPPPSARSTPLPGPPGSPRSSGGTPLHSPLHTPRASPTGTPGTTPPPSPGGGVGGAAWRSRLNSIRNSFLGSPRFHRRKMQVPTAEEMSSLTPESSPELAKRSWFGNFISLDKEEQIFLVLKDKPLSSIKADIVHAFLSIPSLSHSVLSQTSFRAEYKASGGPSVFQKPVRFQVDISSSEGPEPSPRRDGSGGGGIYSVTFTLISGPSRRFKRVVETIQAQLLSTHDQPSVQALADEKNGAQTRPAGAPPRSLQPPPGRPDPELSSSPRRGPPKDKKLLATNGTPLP
Serine/threonine-protein kinase D3 (Homo sapiens), sequence (O94806 whole entry): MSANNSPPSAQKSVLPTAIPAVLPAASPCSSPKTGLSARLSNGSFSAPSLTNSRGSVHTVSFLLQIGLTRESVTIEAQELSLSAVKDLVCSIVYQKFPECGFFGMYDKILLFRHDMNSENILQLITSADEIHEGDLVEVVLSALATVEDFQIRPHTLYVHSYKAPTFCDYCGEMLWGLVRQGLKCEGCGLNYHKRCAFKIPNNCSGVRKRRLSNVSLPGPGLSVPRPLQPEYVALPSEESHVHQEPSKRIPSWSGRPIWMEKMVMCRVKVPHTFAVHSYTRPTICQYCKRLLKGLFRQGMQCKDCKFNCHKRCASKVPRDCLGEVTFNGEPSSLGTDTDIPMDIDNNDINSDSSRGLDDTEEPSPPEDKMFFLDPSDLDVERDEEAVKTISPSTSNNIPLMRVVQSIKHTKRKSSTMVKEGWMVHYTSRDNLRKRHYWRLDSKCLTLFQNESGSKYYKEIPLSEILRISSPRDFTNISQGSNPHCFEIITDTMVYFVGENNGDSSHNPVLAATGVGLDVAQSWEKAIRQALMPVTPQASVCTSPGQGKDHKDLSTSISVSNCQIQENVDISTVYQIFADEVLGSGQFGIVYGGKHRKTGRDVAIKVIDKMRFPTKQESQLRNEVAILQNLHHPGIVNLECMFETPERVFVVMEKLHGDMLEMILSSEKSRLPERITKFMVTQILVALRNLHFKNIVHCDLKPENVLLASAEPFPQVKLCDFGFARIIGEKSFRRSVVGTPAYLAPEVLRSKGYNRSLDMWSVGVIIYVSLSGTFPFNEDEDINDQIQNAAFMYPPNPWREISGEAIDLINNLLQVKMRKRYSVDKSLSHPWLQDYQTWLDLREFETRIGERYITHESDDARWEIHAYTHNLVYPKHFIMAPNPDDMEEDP
Serine/threonine-protein kinase PLK2 (Homo sapiens), sequence (Q9NYY3 whole entry, looked up): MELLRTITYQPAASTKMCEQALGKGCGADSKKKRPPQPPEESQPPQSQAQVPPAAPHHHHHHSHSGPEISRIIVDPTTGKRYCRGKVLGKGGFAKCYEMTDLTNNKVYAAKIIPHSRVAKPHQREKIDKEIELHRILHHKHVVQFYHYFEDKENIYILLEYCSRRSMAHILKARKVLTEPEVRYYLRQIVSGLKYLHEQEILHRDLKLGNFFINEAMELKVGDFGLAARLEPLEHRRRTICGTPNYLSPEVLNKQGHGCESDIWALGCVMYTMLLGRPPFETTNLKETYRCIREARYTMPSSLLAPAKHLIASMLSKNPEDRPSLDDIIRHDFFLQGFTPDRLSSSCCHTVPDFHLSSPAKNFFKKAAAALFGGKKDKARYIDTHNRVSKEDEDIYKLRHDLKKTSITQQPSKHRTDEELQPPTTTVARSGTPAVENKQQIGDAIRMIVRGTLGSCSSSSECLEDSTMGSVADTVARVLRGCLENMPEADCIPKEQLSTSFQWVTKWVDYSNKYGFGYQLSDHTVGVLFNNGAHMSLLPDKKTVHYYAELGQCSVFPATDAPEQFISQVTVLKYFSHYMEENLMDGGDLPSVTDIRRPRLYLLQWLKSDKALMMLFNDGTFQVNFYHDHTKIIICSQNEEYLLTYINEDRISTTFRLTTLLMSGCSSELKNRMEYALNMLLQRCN
Mitogen-activated protein kinase 11 (Homo sapiens), sequence (Q15759 whole entry): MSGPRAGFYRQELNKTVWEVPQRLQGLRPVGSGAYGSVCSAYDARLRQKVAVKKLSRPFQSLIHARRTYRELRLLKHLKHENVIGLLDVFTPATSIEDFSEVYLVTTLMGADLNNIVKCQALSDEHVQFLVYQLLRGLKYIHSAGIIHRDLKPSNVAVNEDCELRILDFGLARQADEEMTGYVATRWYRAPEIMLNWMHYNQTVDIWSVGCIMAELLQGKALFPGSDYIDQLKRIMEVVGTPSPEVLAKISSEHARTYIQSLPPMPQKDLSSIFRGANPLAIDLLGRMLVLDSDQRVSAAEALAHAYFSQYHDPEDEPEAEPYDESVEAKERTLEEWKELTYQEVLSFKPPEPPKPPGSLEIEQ
Cyclin-dependent kinase 7 (Homo sapiens), sequence (P50613 whole entry): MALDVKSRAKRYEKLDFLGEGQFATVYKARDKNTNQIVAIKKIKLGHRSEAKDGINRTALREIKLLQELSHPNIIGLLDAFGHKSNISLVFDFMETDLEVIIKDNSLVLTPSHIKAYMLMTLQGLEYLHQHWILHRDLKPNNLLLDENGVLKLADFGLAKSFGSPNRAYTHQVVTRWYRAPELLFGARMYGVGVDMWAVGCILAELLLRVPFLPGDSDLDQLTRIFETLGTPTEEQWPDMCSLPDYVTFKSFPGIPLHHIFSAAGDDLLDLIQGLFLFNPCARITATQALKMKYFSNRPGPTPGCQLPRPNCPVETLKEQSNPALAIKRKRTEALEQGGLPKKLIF

CNCc1ccccc1-c1csc([C@@H](C)Nc2nc(C)nc3cc(OC)c(OC)cc23)c1 [BAY-293]
381 nM: Ki [1]
inactive: residual activity [3] 69% | residual activity [4] 94% | residual activity [5] 94% | residual activity [6] 72% | residual activity [7] 91% | residual activity [8] 87% | residual activity [9] 100% | residual activity [10] 81% | residual activity [11] 88% | residual activity [12] 63% | residual activity [13] 100% | residual activity [14] 96% | residual activity [15] 97% | residual activity [16] 85% | residual activity [17] 90% | residual activity [18] 98% | residual activity [19] 71% | residual activity [20] 80% | residual activity [21] 88% | residual activity [22] 100% | residual activity [23] 99% | residual activity [24] 95% | residual activity [25] 93% | residual activity [26] 86% | residual activity [27] 94% | residual activity [28] 56% | residual activity [29] 100% | residual activity [30] 82% | residual activity [31] 92% | residual activity [32] 100% | residual activity [33] 61% | residual activity [34] 91% | residual activity [35] 93% | residual activity [36] 75% | inhibition [38] 26.9%
130 nM: Ki ([2]; read-out: pKi (converted))
131 nM: Ki ([2]; read-out: Ki)
active: inhibition [37] 56.7% | inhibition [39] 94.2%

CNCc1ccccc1-c1csc([C@H](C)Nc2nc(C)nc3cc(OC)c(OC)cc23)c1 [BAY-294]
91.2 nM: Ki ([2]; read-out: pKi (converted))
active: inhibition [38] 64.4% | inhibition [39] 94.2%
127 nM: Ki [1]
95.2 nM: Ki ([2]; read-out: Ki)
inactive: residual activity [3] 76% | residual activity [4] 94% | residual activity [5] 76% | residual activity [6] 90% | residual activity [7] 100% | residual activity [8] 89% | residual activity [9] 100% | residual activity [10] 71% | residual activity [11] 77% | residual activity [12] 61% | residual activity [13] 100% | residual activity [14] 100% | residual activity [15] 100% | residual activity [16] 100% | residual activity [17] 100% | residual activity [18] 100% | residual activity [19] 71% | residual activity [20] 91% | residual activity [21] 100% | residual activity [22] 100% | residual activity [23] 100% | residual activity [24] 100% | residual activity [25] 100% | residual activity [26] 100% | residual activity [27] 100% | residual activity [28] 100% | residual activity [29] 100% | residual activity [30] 83% | residual activity [31] 100% | residual activity [32] 100% | residual activity [33] 52% | residual activity [34] 97% | residual activity [35] 91% | residual activity [36] 100% | inhibition [37] 31%
